{"source": "patent US9890175B2", "about": "“Taxane compound, and preparation method and use thereof” (JIANGSU TASLY DIYI PHARMACEUTICAL CO., LTD., priority 2013, dated 2018)", "key": {"A375 melanoma": {"test_system": "A375 melanoma", "test": "MTT proliferation inhibition, A375", "assay_type": "cell-based", "settings": "Homo sapiens, A-375, read-out: Proliferation inhibition rate, A375 Melanoma", "description": "(§1) 1. Cytotoxicity Assay Using Human Tumor Cell Lines\n(§2) Paclitaxel was used as the positive drug."}, "Du145 prostate cancer": {"test_system": "Du145 prostate cancer", "test": "MTT proliferation inhibition, Du145", "assay_type": "cell-based", "settings": "Homo sapiens, DU-145, read-out: Proliferation inhibition rate, DU145 Prostate cancer", "description": "as §1, §2"}, "[1]": {"test": "Caco-2 cell monolayer membrane transport assay (Papp and recovery)", "assay_type": "in vitro ADME", "settings": "human, Caco-2, Caco-2, A-B", "excerpt": "Caco-2 Cell Monolayer Membrane Transport Assay\n(§3) Human-derived colorectal adenocarcinoma cell line Caco-2 cell monolayer model was used to study the bidirectional transport of the target compounds from the apical (AP) side to the basolateral (BL) side and from BL side to AP side. HPLC was used for quantitative analysis to calculate transport parameters, apparent permeability coefficient (Papp) and the efflux ratio."}, "[2]": {"test_system": "breast cancer cell line MCF-7", "test": "IC50 on breast cancer cell line MCF-7", "assay_type": "cell-based", "settings": "Homo sapiens, MCF7, 72 h, read-out: MCF-7 (IC50, nM)"}, "HL-60 leukemia": {"test_system": "HL-60 leukemia", "test": "MTT proliferation inhibition, HL-60", "assay_type": "cell-based", "settings": "Homo sapiens, HL-60, read-out: Proliferation inhibition rate, HL60 Leukemia", "description": "as §1, §2"}, "LNCaP prostate cancer": {"test_system": "LNCaP prostate cancer", "test": "MTT proliferation inhibition, LNCaP", "assay_type": "cell-based", "settings": "Homo sapiens, read-out: Proliferation inhibition rate, LNCaP Prostate cancer", "description": "as §1, §2"}, "[3]": {"test_system": "NCI-H460 non-small cell lung cancer", "test": "MTT proliferation inhibition, NCI-H460", "assay_type": "cell-based", "settings": "Homo sapiens, NCI-H460, read-out: Proliferation inhibition rate, NCI-H460 Non-small cell lung cancer", "description": "as §1, §2"}, "[4]": {"test_system": "A549 non-small cell lung cancer", "test": "MTT proliferation inhibition, A549", "assay_type": "cell-based", "settings": "Homo sapiens, A549, read-out: Proliferation inhibition rate, A549 Non-small cell lung cancer", "description": "as §1, §2"}, "[5]": {"test": "In vivo oral bioavailability assay in rats", "settings": "rat; for AUC(0-t): 0-24 hours; for MRT inf: read-out: MRT0-∞", "description": "The compound PCMI-08 was synthesized and detected according to the methods provided in the present invention. The internal standard, paclitaxel, was purchased from China's National Institute for the Control of Pharmaceutical and Biological Products (NICPBP). Chromatography-grade acetonitrile was purchased from Sigma-Aldrich Inc. Tween 80 and ethyl acetate were purchased from Aladdin reagent Inc. Male S.D. rats were purchased from Beijing Weitonglihua Inc. and raised in animal house for two weeks.\n200 mg of PCMI-08 was dissolved in 4 ml of a mixed solution of Tween 80 and anhydrous ethanol (1:1) to prepare a stock solution at 50 mg/ml and normal saline was added to adjust to a suitable concentration. 12 male S.D. rats (300 g of body weight) were taken and divided into two groups after overnight fasting. One group was treated with intravenous injection (5 mg/kg) and the other group was treated orally (60 mg/kg). Blood was sampled in the intravenous group at 0th min, 5th min, 10th min, 20th min, 40th min, 1st h, 2nd h, 4th h, 6th h, 8th h, 12th h, 24th h, while the oral group at 5th min, 15th min, 30th min, 45th min, 1st h, 2nd h, 4th h, 6th h, 8th h, 12th h, 24th h. After 10 min centrifugation of plasma at 4500 rpm, the upper serum was taken and transferred to the corresponding EP tube, placed in a −40° C. freezer for assay.\nAgilent 1100 series configuration: Agilent G1313A HPLC autosampler device, 150 mm×2.1 mm C18 Thermo column (particle size 3 μm) reversed-phase column, detection wavelength at 230 nm, column temperature at 30° C., mobile phase of acetonitrile/water (7:3), a flow rate at 0.2 ml/min, injection volume of 20 μl. The mass spectrometry (MS) combined was Thermo Finnigan TSQ Quantum triple quadrupole configurated with electrospray ionization (ESI) in the positive ion mode. The parameters of MS analysis were as follows: spray chamber voltage, 4.0 kv; heated capillary temperature, 350° C.; protective gas (nitrogen); 20 psi; auxiliary gas (nitrogen): 5 psi; collision gas (argon); pressure: 1.5 mmTorr.; Collision energy: CA 17 eV; FA and IFA were 19 eV; IS was 15 eV.\nPaclitaxel was selected as an internal standard with a retention time of 3.07 min. Retention time of PCMI-08 was 5.13 min. MS detection condition to PCMI-08 was set as follows: 957→901 m/z; paclitaxel as an internal standard. Detection conditions: 876→308 m/z. The concentration range of the standard curve of PCMI-08 was 5-10,000 ng/ml (γ^2>0.99) and the minimum detection limit was 5 ng/ml.\n100 μL of plasma samples were taken, into which 100 μL of the internal standard (paclitaxel, 500 ng/ml acetonitrile solution) was added, followed by addition of 3 ml of ethyl acetate after well homogenized via vortex, after 5 min shaking, centrifuging for 8 min at a rotating speed of 4500 rpm. The supernatant was transferred to a clean EP tube with nitrogen to blow to dry under heating condition. After reconstitution with 120 μL mobile phase (CH3CN/H2O=7:3), the solution was centrifuged at 12,000 rpm for 3 min, 100 μl of supernatant was taken and transferred to an autosampler vial. After LC-MS/MS detection, statistical data and pharmacokinetic parameters were processed by Xcalibur® (version 1.3) software (Thermo Finnigan)."}, "Caco-2 cell monolayer": {"test_system": "Caco-2 cell monolayer", "test": "Caco-2 bidirectional transport, efflux ratio", "settings": "Caco-2 cell line (21 days)", "excerpt": "as §3"}, "[6]": {"test_system": "MCF-7 breast cancer cells", "test": "MTT proliferation inhibition, MCF-7", "assay_type": "cell-based", "settings": "Homo sapiens, MCF7, read-out: Proliferation inhibition rate, MCF-7 Breast cancer", "description": "as §1, §2"}, "[7]": {"test_system": "MDA-MB-436 breast cancer cells", "test": "MTT proliferation inhibition, MDA-MB-436", "assay_type": "cell-based", "settings": "Homo sapiens, MDA-MB-436, read-out: Proliferation inhibition rate, MDA-MB-436 Breast cancer", "description": "as §1, §2"}, "B16 melanoma": {"test_system": "B16 melanoma", "test": "MTT proliferation inhibition, B16", "assay_type": "cell-based", "settings": "B16, read-out: Proliferation inhibition rate, B16 Melanoma", "description": "as §1, §2"}, "[8]": {"settings": "male, Sprague-Dawley, plasma, intravenous administration 5 mg/kg"}, "[9]": {"settings": "male, Sprague-Dawley, plasma, oral administration 60 mg/kg"}}, "note": "Like-named read-outs stand apart in the source and are kept apart here.", "data": [{"smiles": "CO[C@H]1C[C@H]2OC[C@@]2(OC(C)=O)[C@H]2[C@H](OC(=O)c3ccccc3)[C@]34OC(=O)O[C@H]3[C@H](OC(=O)[C@H](O)[C@@H](NC(=O)OC(C)(C)C)c3ccccc3)C(C)=C([C@@H](OC(=O)N(C)C)C(=O)[C@]12C)C4(C)C", "note": "[PCMI-08]", "values": [{"measurement": "inhibition at 1 µM", "setting": "A375 melanoma", "result": 92.8, "unit": "%"}, {"measurement": "inhibition at 1 µM", "setting": "Du145 prostate cancer", "result": 86.7, "unit": "%"}, {"measurement": "Papp A→B", "setting": "[1]; Mean, read-out: Papp A-B, Mean", "result": "> 10", "unit": "×10⁻⁶ cm/s"}, {"measurement": "recovery", "setting": "[1]; Mean, read-out: Recovery rate in mass, Mean", "result": 99.4, "unit": "%"}, {"measurement": "Papp A→B", "setting": "[1]; Sample-01, read-out: Papp A-B, Sample-01", "result": 19.5, "unit": "×10⁻⁶ cm/s"}, {"measurement": "recovery", "setting": "[1]; Sample-01, read-out: Recovery rate in mass, Sample-01", "result": 102, "unit": "%"}, {"measurement": "Papp A→B", "setting": "[1]; Sample-02, read-out: Papp A-B, Sample-02", "result": 17.3, "unit": "×10⁻⁶ cm/s"}, {"measurement": "recovery", "setting": "[1]; Sample-02, read-out: Recovery rate in mass, Sample-02", "result": 97, "unit": "%"}, {"measurement": "IC50", "setting": "[2]", "result": "7.93 ± 0.14", "unit": "nM"}, {"measurement": "inhibition at 1 µM", "setting": "HL-60 leukemia", "result": 96.8, "unit": "%"}, {"measurement": "inhibition at 1 µM", "setting": "LNCaP prostate cancer", "result": 84.3, "unit": "%"}, {"measurement": "inhibition at 1 µM", "setting": "[3]", "result": 85.2, "unit": "%"}, {"measurement": "inhibition at 1 µM", "setting": "[4]", "result": 68.1, "unit": "%"}, {"measurement": "half-life", "setting": "[5]; male, Sprague-Dawley, plasma, other: intravenous and oral (summary over both arms), route not specified, read-out: half-life (converted)", "result": "~10", "unit": "h"}, {"measurement": "AUC(0-inf)", "setting": "[5]; [8]", "result": "4050 ± 1860", "unit": "ng·h/mL"}, {"measurement": "Cmax", "setting": "[5]; [8]", "result": "11000 ± 2680", "unit": "ng/mL"}, {"measurement": "Tmax", "setting": "[5]; [8]", "result": 0, "unit": "h"}, {"measurement": "AUC(0-t)", "setting": "[5]; [8]", "result": "3440 ± 1480", "unit": "ng·h/mL"}, {"measurement": "MRT inf", "setting": "[5]; [8]", "result": "10.1 ± 2.6", "unit": "h"}, {"measurement": "half-life", "setting": "[5]; male, Sprague-Dawley, plasma, intravenous administration 5 mg/kg, read-out: t1/2 (converted)", "result": "10.2 ± 1.72", "unit": "h"}, {"measurement": "AUC(0-inf)", "setting": "[5]; [9]", "result": "32000 ± 8540", "unit": "ng·h/mL"}, {"measurement": "Cmax", "setting": "[5]; [9]", "result": "2120 ± 454", "unit": "ng/mL"}, {"measurement": "Tmax", "setting": "[5]; [9]", "result": "3 ± 1.1", "unit": "h"}, {"measurement": "AUC(0-t)", "setting": "[5]; [9]", "result": "25300 ± 6150", "unit": "ng·h/mL"}, {"measurement": "MRT inf", "setting": "[5]; [9]", "result": "15.2 ± 1.71", "unit": "h"}, {"measurement": "half-life", "setting": "[5]; male, Sprague-Dawley, plasma, oral administration 60 mg/kg, read-out: t1/2 (converted)", "result": "10.4 ± 1.14", "unit": "h"}, {"measurement": "bioavailability", "setting": "[5]; male, Sprague-Dawley, plasma, oral, 60 mg/kg, oral 60 mg/kg vs intravenous 5 mg/kg, read-out: F, absolute oral bioavailability", "result": 65.8, "unit": "%"}, {"measurement": "F, absolute oral bioavailability", "setting": "[5]; oral 60 mg/kg vs intravenous 5 mg/kg", "result": 65.79, "unit": "%"}, {"measurement": "mean retention time", "setting": "[5]; route not specified", "result": "≥ 10", "unit": "h"}, {"measurement": "Papp A-B", "setting": "Caco-2 cell monolayer; A-B", "result": "16.40 10^−6 cm/s"}, {"measurement": "Papp B-A", "setting": "Caco-2 cell monolayer; B-A", "result": "33.48 10^−6 cm/s"}, {"measurement": "efflux ratio", "setting": "Caco-2 cell monolayer; Papp B-A/Papp A-B", "result": 2.04}, {"measurement": "inhibition at 1 µM", "setting": "[6]", "result": 81.3, "unit": "%"}, {"measurement": "inhibition at 1 µM", "setting": "[7]", "result": 65.7, "unit": "%"}, {"measurement": "inhibition at 1 µM", "setting": "B16 melanoma", "result": 70.6, "unit": "%"}]}]}
